The values below come from the SangsterLogP compilation.

Each structure is given as a SMILES string.

The data set is described as follows: method code SF-AS, from PMID: 6637504. The conditions noted are these: pH 5.0.

`O=c1c2c(nc3ccccn13)CCC2`: the logD – broadly, lipophilicity at a set pH, counting ionised and neutral species – was determined as 1.19.

`Cc1cccn2c(=O)c3c(nc12)CCC3` registered a logD of 1.72.

Regarding `O=c1c2c(nc3n1CCC3)CCCC2`, the logD was 0.83.

The compound `O=c1c2c(nc3n1CCCC3)CCC2` gave a logD of 0.72.

`O=c1c2c(nc3n1CCC3)CCCCCC2` gave a logD of 1.41.

Consider `O=c1c2ccccc2nc2n1CCC2`, for which the logD was found to be 1.07.

The compound `CCCc1c(C)nc2ccccn2c1=O` gave a log distribution coefficient (logD) of 1.85.

Regarding `CC1CCn2c(nc3c(c2=O)CCC3)C1` (stereo not drawn), the logD was 1.22.

With `O=c1c2c(nc3n1CCC3)CCCCC2`, the pH-dependent lipophilicity (logD) was 1.25.

For the compound `CC1CCc2nc3c(c(=O)n2C1)CCC3` (stereo not drawn), the logD was 1.2.

Compound `CCc1c(C)nc2cc(C)cc(C)n2c1=O` registered a logD of 1.8.

The compound `O=c1c2c(nc3n1CCCCCC3)CCCCCC2` gave a logD of 2.77.

In turn, `CC1CCCc2nc3c(c(=O)n21)CCC3` (stereo not drawn) had a logD of 1.21.
